Like-named read-outs stand apart in the source and are kept apart here.
Assays:
σ1 receptor = σ1 receptor (Cavia porcellus (Guinea pig), UniProt Q60492); assay: σ1 receptor binding, [3H](+)-Pentazocine; conditions: for Ki: oxalate form, homogenates of guinea pig brain, mean ± SEM; for Selectivity ratio VAChT/σ1: ratio of Ki values
Method: (§1) In vitro binding studies were performed to measure the affinities to the VAChT and σ1 and σ2 receptors. VAChT binding was assayed using membrane homogenate from PC12 cells which overexpress human VAChT.^8 The σ1 and σ2 binding affinities were assayed in […], respectively.
(§2) Briefly, to measure the σ1 receptor binding affinity, we use guinea pig brain membrane homogenates (˜300 μg protein) tissues as the receptor resource and ˜5 nM [^3H](+)-Pentazocine (34.9 Ci/mmol, Perkin Elmer, Boston, Mass.) as the radioligand. The mixture was incubated in 96-well plates for 90 min at room temperature. Nonspecific binding was determined from samples containing 10 μM of nonradioactive Haloperidol. After 90 min, the mixture was transferred into a 96-well fiberglass filter plate (Millipore, Billerica, Mass.) presoaked with 100 μL of 50 mM Tris-HCl buffer at pH 8.0 for 60 min, followed by addition of 150 μL of ice-cold wash buffer (10 mM Tris-HCl, 150 mM NaCl, pH 7.4). The harvested samples were filtered rapidly and washed with 3×200 μL portions of ice-cold wash buffer, and the filterers were counted by a Wallac 1450 MicroBeta liquid scintillation counter (Perkin-Elmer, Boston, Mass.). […] The mixture was incubated for 120 min at room temperature. Nonspecific binding was determined from samples containing 10 μM of nonradioactive Haloperidol. All other procedures were similar to those described for the σ1 receptor binding assay above. Data from the competitive binding experiments were modeled using nonlinear regression analysis to determine the concentration that inhibits 50% of the specific binding of the radioligand. Competitive binding curves were best fit to a one-site fit and gave pseudo-Hill coefficients of 0.6-1.0. Ki values were calculated using the method of Cheng and Prusoff,^35 then presented as the mean±SEM.

σ2 receptor = σ2 receptor (Rattus norvegicus (Rat), UniProt Q5U3Y7); assay: σ2 receptor binding, [3H]DTG; conditions: for Ki: oxalate form, homogenates of rat liver; for Selectivity ratio VAChT/σ2: ratio of Ki values
σ2 receptor, sequence (Q5U3Y7 whole entry): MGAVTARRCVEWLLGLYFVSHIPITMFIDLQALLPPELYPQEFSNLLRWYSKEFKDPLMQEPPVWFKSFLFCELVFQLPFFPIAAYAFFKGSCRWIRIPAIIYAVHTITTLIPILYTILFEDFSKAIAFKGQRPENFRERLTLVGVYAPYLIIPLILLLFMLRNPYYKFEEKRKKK
Method: In vitro binding studies were performed to measure the affinities to the VAChT and σ1 and σ2 receptors. […]
as §2

human VAChT = human VAChT (Homo sapiens (Human), UniProt Q16572); assay: VAChT binding, competition against [3H]Vesamicol; conditions: oxalate form, expressed human VAChT, mean ± SEM
human VAChT, sequence (Q16572 whole entry): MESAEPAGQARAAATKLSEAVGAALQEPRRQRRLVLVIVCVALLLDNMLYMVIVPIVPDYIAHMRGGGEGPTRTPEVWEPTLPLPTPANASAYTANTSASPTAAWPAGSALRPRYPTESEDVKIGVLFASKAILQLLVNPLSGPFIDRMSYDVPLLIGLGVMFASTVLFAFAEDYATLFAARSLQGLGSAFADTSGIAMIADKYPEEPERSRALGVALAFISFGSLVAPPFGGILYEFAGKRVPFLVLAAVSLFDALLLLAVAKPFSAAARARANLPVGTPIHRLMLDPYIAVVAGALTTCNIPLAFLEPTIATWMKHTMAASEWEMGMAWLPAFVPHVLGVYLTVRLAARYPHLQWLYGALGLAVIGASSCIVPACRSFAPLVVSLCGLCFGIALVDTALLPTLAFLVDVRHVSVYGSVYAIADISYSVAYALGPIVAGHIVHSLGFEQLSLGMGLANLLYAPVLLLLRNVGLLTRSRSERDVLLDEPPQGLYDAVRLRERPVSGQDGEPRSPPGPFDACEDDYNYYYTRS
Method: as §1
The test compounds were assayed in increments of 10-fold from 0.1 to 10,000 nM concentration. The surfaces of containers were pre-coated with Sigmacote (Sigma-Aldrich, Mo.). Samples containing 200 μg postnuclear supernatant in 200 μL of 110 mM potassium tartrate, 20 mM HEPES (pH 7.4 with KOH), 1 mM dithiothreitol, and 0.02% sodium azide were incubated at 22° C. for 24 h. A volume of 90 μL was filtered in duplicate through GF/F glass fiber filters coated with polyethylenimine and washed. Filter-bound radioactivity was determined by liquid scintillation spectrometry for 10 min per sample. Averaged data were fitted by regression with a rectangular hyperbola to estimate Ki value. All the compounds were independently assayed at least two times.

[1] = Table 1, read-out: Ki (nM) for VAChT
[2] = Table 2, read-out: Ki (nM) VAChT

σ1 receptor, sequence (Q60492 whole entry): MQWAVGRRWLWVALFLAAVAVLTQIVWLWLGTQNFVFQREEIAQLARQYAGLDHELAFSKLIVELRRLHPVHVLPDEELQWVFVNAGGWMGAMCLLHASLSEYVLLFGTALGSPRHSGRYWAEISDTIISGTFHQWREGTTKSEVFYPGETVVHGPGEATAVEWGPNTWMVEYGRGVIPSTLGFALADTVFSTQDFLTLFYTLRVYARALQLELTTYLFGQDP

| SMILES | Ki (σ1 receptor) | Selectivity ratio VAChT/σ1 (σ1 receptor) | Ki (σ2 receptor) | Selectivity ratio VAChT/σ2 (σ2 receptor) | Ki (human VAChT; [1]) | Ki (human VAChT; [2]) | Ki (human VAChT; Table 2, listed as (−)-[18F]9a, read-out: Ki (nM) VAChT) |
| --- | --- | --- | --- | --- | --- | --- | --- |
| CS(=O)(=O)c1ccc(C(=O)C2CCN(C3Cc4ccccc4CC3O)CC2)cc1 (racemic) [Compound 2, (1-(3-Hydroxy-1,2,3,4-tetrahydronaphthalen-2-yl)piperidin-4-yl)(4 (methylsulfonyl)phenyl)methanone] | 16.5 ± 2.1 nM | 3.1 | > 1000 nM | >185 | 5.4 nM | – | – |
| CSc1ccc(C(=O)C2CCN(C3Cc4ccccc4CC3O)CC2)cc1 (racemic) [Compound 3, (1-(3-Hydroxy-1,2,3,4-tetrahydronaphthalen-2-yl)piperidin-4-yl)(4-(methylthio)phenyl)methanone] | 17.2 ± 4 nM | 7.2 | > 1000 nM | >416 | 2.4 nM | – | – |
| CS(=O)(=O)c1ccc(C(=O)C2CCN([C@@H]3Cc4ccccc4C[C@H]3O)CC2)cc1 (single isomer, unassigned) [(+)-2] | 18.5 ± 3.4 nM | 0.1 | > 1000 nM | >5 | – | 193 ± 17.8 nM | – |
| CSc1ccc(C(=O)C2CCN([C@@H]3Cc4ccccc4C[C@H]3O)CC2)cc1 (single isomer, unassigned) [(+)-3] | 23.3 ± 2.9 nM | 1.7 | > 1000 nM | >72 | – | 13.8 ± 1.1 nM | – |
| O=C(c1ccc(SCCF)cc1)C1CCN([C@@H]2Cc3ccccc3C[C@H]2O)CC1 (single isomer, unassigned) [(+)-9a] | 14.4 ± 2 nM | 1.2 | > 1000 nM | >84 | – | 11.8 ± 2.7 nM | – |
| O=C(c1ccc(SCCCF)cc1)C1CCN([C@@H]2Cc3ccccc3C[C@H]2O)CC1 (single isomer, unassigned) [(+)-9b] | 38.6 ± 7.1 nM | 1.9 | > 1000 nM | >50 | – | 19.9 ± 9.2 nM | – |
| O=C(c1ccc(SCCF)cc1)C1CCN([C@@H]2Cc3ccccc3C[C@H]2O)CC1 (single isomer, unassigned) [(−)-[^18F]9a] | – | – | – | – | – | – | 2.2 nM |
| C[S+]([O-])c1ccc(C(=O)C2CCN(C3Cc4ccccc4CC3O)CC2)cc1 (stereo not drawn) [Compound 4, (1-(3-Hydroxy-1,2,3,4-tetrahydronaphthalen-2-yl)piperidin-4-yl)(4-(methylsulfinyl)phenyl)methano-ne] | – | – | – | – | 6.5 nM | – | – |
| O=C(c1ccc(S(=O)(=O)CCCF)cc1)C1CCN(C2Cc3ccccc3CC2O)CC1 (stereo not drawn) [Compound 7, (4-((3-Fluoropropyl)sulfonyl)phenyl)(1-(3-hydroxy-1,2,3,4-tetrahydronaphthalen-2-yl)piperidin-4-yl)methanone] | – | – | – | – | 12.8 ± 0.7 nM | – | – |

The next lines start with the values.

| Ki (σ1 receptor) | Selectivity ratio VAChT/σ1 (σ1 receptor) | Ki (σ2 receptor) | Selectivity ratio VAChT/σ2 (σ2 receptor) | Ki (human VAChT; [1]) | Ki (human VAChT; [2]) | Ki (human VAChT; Table 2, listed as (−)-[18F]9a, read-out: Ki (nM) VAChT) | SMILES |
| --- | --- | --- | --- | --- | --- | --- | --- |
| 16.7 ± 2.1 nM | 7.0 | > 1000 nM | >416 | 2.4 nM | – | – | O=C(c1ccc(SCCF)cc1)C1CCN(C2Cc3ccccc3CC2O)CC1 (racemic) [Compound 9a, (4-((2-Fluoroethyl)thio)phenyl)(1-(3-hydroxy-1,2,3,4-tetrahydronaphthalen-2-yl)piperidin-4-yl)methanone] |
| 40.8 ± 4.1 nM | 17.7 | > 1000 nM | >434 | 2.3 nM | – | – | O=C(c1ccc(SCCCF)cc1)C1CCN(C2Cc3ccccc3CC2O)CC1 (racemic) [Compound 9b, (4-((3-Fluoropropyl)thio)phenyl)(1-(3-hydroxy-1,2,3,4-tetrahydronaphthalen-2-yl)piperidin-4-yl)methanone] |
| – | – | – | – | 6.3 nM | – | – | CNS(=O)(=O)c1ccc(C(=O)C2CCN(C3Cc4ccccc4CC3O)CC2)cc1 (stereo not drawn) [Compound 6a, 4-(1-(3-Hydroxy-1,2,3,4-tetrahydronaphthalen-2-yl)piperidine-4-carbonyl)-N-methylbenzenesulfon-amide] |
| – | – | – | – | 13 nM | – | – | O=C(c1ccc(S(=O)(=O)NCCF)cc1)C1CCN(C2Cc3ccccc3CC2O)CC1 (stereo not drawn) [Compound 6b, N-(2-fluoroethyl)-4-(1-(3-hydroxy-1,2,3,4-tetrahydronaphthalen-2-yl)piperidine-4-carbonyl)benzenesulfonamide] |

Reference: US10421722B2, “Sulfur-containing compounds targeting vesicular acetylcholine transporter” (Washington University, priority 2016, dated 2019)
